Assay results as given in US20090187484A1, “Soil treatments with carbon dioxide” (Cleareso, LLC, priority 2008, published 2009).
Values belong to the molecule of their own block, whether it stands above or below them.

Legend:
[1] = Solubility and appearance of the aqueous test preparations; type: physicochemical
[2] = tested on: Larvae of the root weevil, Diaprepes abbreviatus; experiment: Immersion of root weevil larvae in test solutions (mortality, moribund effect); type: in vivo; conditions: for toxicity judgement for the larvae: 0.1 to 5.0%, test terminated at 24 hours; for black residue across all treatments: control to 5.0%; for Mortality of larvae with individual compounds and formulations: five larvae
Text: Larvae and pupae of the root weevil, Diaprepes abbreviatus, were immersed in a variety of compounds to understand their effect on the activity of this pest.
The criterion for toxicity with these larvae is the lack of nipping behavior and its consequent black residue from blood loss and the lack of spontaneous movement.
Experimental Design. Larvae and pupae were received from the Florida Dept. of Agriculture's rearing program in Gainesville, Fla. Larvae were shipped as 50-day larvae (larvae that will pupate in about 10 days). Both larvae and pupae were held at 27° C. in 12 hour cycles of light and dark in their containers as separate individuals until experimentation began.
In the testing, five larvae or pupae were removed from their rearing cups and placed in a 150 ml glass beaker. In testing the Soy Technologies Manufacturer's Base (SMTB), a 5% solution was mixed in either water or carbonated water by adding 10 ml of SMTB to a 250 ml beaker and then adding water or carbonated water to the 200 ml mark. The solutions were then immediately added to the beaker with the larvae or pupae to cover them. Controls with water or carbonated water alone were also included. There was a single tray of five larvae for each treatment at each time period and a five larvae control for each time period. Larvae were removed and placed on plastic weighing trays after 5,10, 15, 20, 25, and 30 minutes. At the end of 30 minutes all organisms were assessed for mortality. Trays with larvae were left on the bench tip for 24 hours and then another mortality assessment was made.
Concentration Series. With the results from the time series above, larvae were held in different concentrations of STMB for 30 minutes. After 30 minutes, solutions were poured off and the trays wiped dry. Assessments were made at 24 or 48 hours with a few assessments at 72 hours dependent on effects. Treatments were: water or carbonated water as controls, and 0.1, 0.5, 1.0, 2.0, 3.0, 4.0 and 5.0% concentrations in either distilled water or carbonated water. Five larvae were used for each control and treatment. Pupae were not used in this assessment.

- solubility of aqueous preparation ([1]; 0.1% concentration): soluble
- solubility of aqueous preparation ([1]; 1.0% concentration): not completely soluble
- solubility of aqueous preparation ([1]; 3.0% concentration): not completely soluble
- solubility of aqueous preparation ([1]; 5.0% concentration): not completely soluble
Molecule: COC(=O)CCCCC(=O)OC [627-93-0, Dimethyl hexanedioate]
- appearance (black residue) compared with control ([2]; 0.1% treatment, 24 hours): looked identical
- toxicity judgement for the larvae [2]: non-toxic
- black residue ([2]; 5.0% treatment, 24 hours): only slightly less black residue than the 3.0% treatment

- solubility of aqueous preparation ([1]; 0.1% concentration): soluble
- solubility of aqueous preparation ([1]; 1.0% concentration): just soluble
- solubility of aqueous preparation ([1]; 3.0% concentration): not soluble
- solubility of aqueous preparation ([1]; 5.0% concentration): not soluble
Molecule: COC(=O)CCC(=O)OC [106-65-0, butanedioic acid, dimethyl ester]
- toxicity judgement for the larvae [2]: non-toxic
- black residue across all treatments ([2]; 24 hours): all treatments looked just like the control

Molecule: COC(=O)CCCC(=O)OC [1119-40-0, pentanedioic acid, dimethyl ester]
- survival of larvae after 30 minutes ([2]; 0.1 to 5.0% treatments, end of 30 minutes immersion): All larvae were alive
- black residue ([2]; 3 and 5% treatments, 48 hours): less black residue than the control

Molecule: Polyoxyethylene 10 tridecylether [24938-91-8]
- black residue ([2]; 3 and 5% treatments, 48 hours): less black residue
- Mortality of larvae with individual compounds and formulations ([2]; concentration 0.1 percent, 24 hours): 0
- Mortality of larvae with individual compounds and formulations ([2]; concentration 0.1 percent, 48 hours): 0
- Mortality of larvae with individual compounds and formulations ([2]; concentration 0.1 percent, 72 hours): 0
- Mortality of larvae with individual compounds and formulations ([2]; concentration 1.0 percent, 24 hours): 2
- Mortality of larvae with individual compounds and formulations ([2]; concentration 1.0 percent, 48 hours): 2
- Mortality of larvae with individual compounds and formulations ([2]; concentration 1.0 percent, 72 hours): 2
- Mortality of larvae with individual compounds and formulations ([2]; concentration 3.0 percent, 24 hours): 0
- Mortality of larvae with individual compounds and formulations ([2]; concentration 3.0 percent, 48 hours): 0
- Mortality of larvae with individual compounds and formulations ([2]; concentration 3.0 percent, 72 hours): 0
- Mortality of larvae with individual compounds and formulations ([2]; concentration 5.0 percent, 24 hours): 0
- Mortality of larvae with individual compounds and formulations ([2]; concentration 5.0 percent, 48 hours): 3
- Mortality of larvae with individual compounds and formulations ([2]; concentration 5.0 percent, 72 hours): 3
- black residue across all treatments ([2]; 24 hours): gradation of black residue from control to 5.0 with 5.0 having the least
